Laboratory results published in patent publication US20110039783A1, “PEPTIDE HAVING HYPOTENSIVE ACTIVITY” (DAIICHI SANKYO COMPANY LIMITED, priority 2007, published 2011).
Where no end group is shown, it is not given here.

System: blood pressure of anesthetized Sprague-Dawley IGS male rats
Test: Hypotensive activity in anesthetized rats, invasive blood pressure measurement after intravenous administration
Type: in vivo, rat
Conditions: for Hypotensive activity (dose/rat) 30 nmol / Hypotensive activity (dose/rat) 10 nmol / Hypotensive activity (dose/rat) 100 nmol: anesthetized rats, intravenous; for Hypotensive activity (dose/rat) 30 nmol: 30 nmol/rat; for Hypotensive activity (dose/rat) 10 nmol: 10 nmol/rat; for Hypotensive activity (dose/rat) 100 nmol: 100 nmol/rat; for dose dependence of hypotensive activity: anesthetized rats, 10, 30, 100 nmol/rat
Method: 50 mg/kg pentobarbital sodium was intraperitoneally administered to 8- to 10-week-old Sprague-Dawley IGS male rats (Charles River Laboratories Japan, Inc.) for anesthesia. Thereafter, a tracheal cannula (PE 250), a femoral vein cannula (PE50), and a femoral artery cannula (PESO) were inserted into each rat. The femoral artery cannula was connected with a pressure transducer (PE23XL; manufactured by Nihon Kohden Corporation), and an apparatus formed by incorporating a blood pressure measurement unit (AP-641G; manufactured by Nihon Kohden Corporation) and an instantaneous heart rate measurement unit (AT-601G; manufactured by Nihon Kohden Corporation) into a multi-purpose preamplifier (RP-6004; manufactured by Nihon Kohden Corporation) was used to record the blood pressure and heart rate of each rat. The blood pressure was calibrated using a mercury manometer included in a stand-type electromanometer (MP-25S; manufactured by Nihon Kohden Corporation). The recording paper was adjusted, such that 10 mm or 20 mm on the recording paper corresponded to 100 mmHg.
Each peptide was dissolved in a concentration of 1 mM or 10 mM in a 0.1% acetic acid solution to prepare a peptide solution. Thereafter, depending on dose, it was diluted with a normal saline containing 0.1% bovine serum albumin (Fr.V). In the case of the dose of 10 nmol/rat, a 1 mM peptide solution was 10 times diluted, and 100 μl of the diluted solution was administered. In the case of the dose of 30 nmol/rat, a 1 mM peptide solution was 10 times diluted, and 300 μL, of the diluted solution was administered. In the case of the dose of 100 nmol/rat, a 10 mM peptide solution was 10 times diluted, and 100 μL of the diluted solution was administered. Each peptide was intravenously administered via the femoral vein cannula, and the systolic blood pressure, diastolic blood pressure, and heart rate were then measured.
Various HC021 derivative peptides were synthesized in accordance with Example 1, and such peptide was then administered to each rat at a dose of 10 nmol/rat, 30 nmol/rat, or 100 mol/rat by the method described in Example 2. Thereafter, the hypotensive activity of each derivative peptide was measured. […] The strength of such activity was determined using a median of activity in repeated experiments. In addition, in order to make a comparison among the activities of various derivative peptides, the strength of hypotensive activity was defined as follows.
Strength of Hypotensive Activity
Extremely strong activity (+++): A decrease in systolic blood pressure is 30 mmHg or more, and the time required for recovery is 5 minutes or more.
Strong activity (++): A decrease in systolic blood pressure is 20 mmHg or more and less than 30 mmHg, or the time required for recovery is less than 5 minutes.
Activity observed (+): A decrease in systolic blood pressure is less than 20 mmHg.
Activity not observed (−)
Various HC021 peptide sequence-substituted products were synthesized in accordance with Example 1, and their hypotensive activity was then measured according to the method of Example 3.

Substance	Hypotensive activity (dose/rat) 30 nmol (Table 3)	Hypotensive activity (dose/rat) 10 nmol (Table 2)	Hypotensive activity (dose/rat) 30 nmol (Table 2)	Hypotensive activity (dose/rat) 100 nmol (Table 2)	other results
VQQRKESKKPPAKLQPRNRDLFFRRLQAYFK-amide (VQQRKESKKPPAKLQPRNRDLFFRRLQAYFK-NH2) [Compound 40]	++ (Strong activity (++): A decrease in systolic blood pressure is 20 mmHg or more and less than 30 mmHg, or the time required for recovery is less than 5 minutes.)				
ATVRNEDKWKPLNNPRNRDLFF [Compound 1]		−	−	−	Hypotensive activity (dose/rat) 10 nmol (Table 1): −; Hypotensive activity (dose/rat) 30 nmol (Table 1): −; Hypotensive activity (dose/rat) 100 nmol (Table 1): −
ATLGSEDTWKPLSNPRNRELFFRSLQAYF-amide [Compound 38]	−				Hypotensive activity (dose/rat) 10 nmol (Table 3): −; Hypotensive activity (dose/rat) 100 nmol (Table 3): ++ (Strong activity (++): A decrease in systolic blood pressure is 20 mmHg or more and less than 30 mmHg, or the time required for recovery is less than 5 minutes.)
FFRRLQAYFK-amide (FFRRLQAYFK-NH2) [Compound 20]			−	−	
LFFRRLQAYFKGRGLDLGTFPNPFPTNENPR [Compound 29]		+++ (Extremely strong activity (+++): A decrease in systolic blood pressure is 30 mmHg or more, and the time required for recovery is 5 minutes or more.)			
NRDLFFRRLQAYFKG-amide (NRDLFFRRLQAYFKG-NH2) [Compound 12]		−	++ (Strong activity (++): A decrease in systolic blood pressure is 20 mmHg or more and less than 30 mmHg, or the time required for recovery is less than 5 minutes.)	+++ (Extremely strong activity (+++): A decrease in systolic blood pressure is 30 mmHg or more, and the time required for recovery is 5 minutes or more.)	dose dependence of hypotensive activity: enhanced their hypotensive activity in a dose-dependent manner
NGATVRNEDKWKPLNNPRNRDLFFRRLQAYFK-amide [Compound 6]		−	+ (Activity observed (+): A decrease in systolic blood pressure is less than 20 mmHg.)		
RDLFFRRLQAYFK-amide (RDLFFRRLQAYFK-NH2) [Compound 16]		−	++ (Strong activity (++): A decrease in systolic blood pressure is 20 mmHg or more and less than 30 mmHg, or the time required for recovery is less than 5 minutes.)	+++ (Extremely strong activity (+++): A decrease in systolic blood pressure is 30 mmHg or more, and the time required for recovery is 5 minutes or more.)	dose dependence of hypotensive activity: enhanced their hypotensive activity in a dose-dependent manner
LFFRRLQAYFKGRGLDLGTFPNPF-amide (LFFRRLQAYFKGRGLDLGTFPNPF-NH2) [Compound 28]		+++ (Extremely strong activity (+++): A decrease in systolic blood pressure is 30 mmHg or more, and the time required for recovery is 5 minutes or more.)			
LFFRRLQAYF-amide (LFFRRLQAYF-NH2) [Compound 24]			++ (Strong activity (++): A decrease in systolic blood pressure is 20 mmHg or more and less than 30 mmHg, or the time required for recovery is less than 5 minutes.)		
LFFRRLQAWFK-amide (LFFRRLQAWFK-NH2) [Compound 46]	−				Hypotensive activity (dose/rat) 10 nmol (Table 3): −; Hypotensive activity (dose/rat) 100 nmol (Table 3): + (Activity observed (+): A decrease in systolic blood pressure is less than 20 mmHg.)
LFFRRLQA-amide (LFFRRLQA-NH2) [Compound 26]			−	−	
acetyl-ATVRNEDKWKPLNNPRNRDLFFRRLQAYFK-amide [Compound 31]			+++ (Extremely strong activity (+++): A decrease in systolic blood pressure is 30 mmHg or more, and the time required for recovery is 5 minutes or more.)		
FRRLQAYFK-amide (FRRLQAYFK-NH2) [Compound 21]			−	−	
LFFRRLQALFK-amide (LFFRRLQALFK-NH2) [Compound 44]	++ (Strong activity (++): A decrease in systolic blood pressure is 20 mmHg or more and less than 30 mmHg, or the time required for recovery is less than 5 minutes.)				Hypotensive activity (dose/rat) 10 nmol (Table 3): −
NRDLFFRRLQAYFKGR-amide (NRDLFFRRLQAYFKGR-NH2) [Compound 14]		+ (Activity observed (+): A decrease in systolic blood pressure is less than 20 mmHg.)	++ (Strong activity (++): A decrease in systolic blood pressure is 20 mmHg or more and less than 30 mmHg, or the time required for recovery is less than 5 minutes.)		dose dependence of hypotensive activity: enhanced their hypotensive activity in a dose-dependent manner
LFFRRLQAYFKGRGLDLGTFPNPF [Compound 27]		+++ (Extremely strong activity (+++): A decrease in systolic blood pressure is 30 mmHg or more, and the time required for recovery is 5 minutes or more.)			
FVPIFTYGELQRMQNRDLFFRRLQAYFK-amide (FVPIFTYGELQRMQNRDLFFRRLQAYFK-NH2) [Compound 39]	−				Hypotensive activity (dose/rat) 10 nmol (Table 3): −; Hypotensive activity (dose/rat) 100 nmol (Table 3): +++ (Extremely strong activity (+++): A decrease in systolic blood pressure is 30 mmHg or more, and the time required for recovery is 5 minutes or more.)
ATLGSEDTWKPLSNPRNRDLFPRRLQAYFK-amide [Compound 35]	++ (Strong activity (++): A decrease in systolic blood pressure is 20 mmHg or more and less than 30 mmHg, or the time required for recovery is less than 5 minutes.)				Hypotensive activity (dose/rat) 10 nmol (Table 3): −
ATVRNEDKWKPLNNPRNRDLFFRRLQAYFK (not fully specified) [Compound 8]			−	+++ (Extremely strong activity (+++): A decrease in systolic blood pressure is 30 mmHg or more, and the time required for recovery is 5 minutes or more.)	
